# Results reported in US20250134857A1, “Fast Acting Joint Health Composition and Use Thereof” (Lonza Greenwood LLC, priority 2022, published 2025).
# Key:
# Assay type in all cases: cell-based, Human
# MMP-13 = MMP-13 expression by real-time PCR in IL-1β-treated SW1353 cells; conditions: for MMP-13 Percent Change over Control: 1 h pretreatment, then IL-1β (5 ng/ml) 24 hr
# Experimental: (§1) Human SW1353 chondrosarcoma cell line (ATCC, HTB-94) were grown in monolayer at 37° C., in a humidified atmosphere under 5% CO2, with Dulbecco's Modified Eagle Medium (DMEM) supplemented with 10% (v/v) fetal bovine serum (FBS) and 100 U/ml penicillin-streptomycin solution until 80% confluency with 0.1% v/v DMSO as a vehicle control.
# (§2) The SW1353 cells were starved for 24 h with serum-free DMEM medium (containing 100 U/ml penicillin-streptomycin), and then pretreated with various concentrations of andrographolide and tamarind seed extract at three concentrations (in triplicate) for one hour, followed by addition of IL-1β (5 ng/ml) in culture media for an additional 24 hr. In addition, sulforaphane was tested as a positive control in the same manner as andrographolide and TSE, which is illustrated in FIG. 1E.
# (§3) Real-time PCR was performed with the use of the SYBR Green PCR Master Mix (Applied Biosystems) according to the manufacturer's protocol and amplified on the ABI Prism 7000 sequence detection system. The results are illustrated in FIGS. 1A-1E, and in Table 1.
# COX-2 = COX-2 expression by real-time PCR in IL-1β-treated SW1353 cells; conditions: 1 h pretreatment, then IL-1β (5 ng/ml) 24 hr
# Experimental: as §1, §2
# Real-time PCR was performed with the use of the SYBR Green PCR Master Mix (Applied Biosystems) according to the manufacturer's protocol and amplified on the ABI Prism 7000 sequence detection system.
# IL-1A = IL-1A expression by real-time PCR in IL-1β-treated SW1353 cells; conditions: for IL-1A Percent Change over Control: 1 h pretreatment, then IL-1β (5 ng/ml) 24 hr
# Experimental: as §1, §2, §3
# IL-6 = IL-6 expression by real-time PCR in IL-1β-treated SW1353 cells; conditions: for IL-6 Percent Change over Control: 1 h pretreatment, then IL-1β (5 ng/ml) 24 hr
# Experimental: as §1, §2, §3
# SOX-9 = SOX-9 expression by real-time PCR in IL-1β-treated SW1353 cells; conditions: 1 h pretreatment, then IL-1β (5 ng/ml) 24 hr
# Experimental: as §1, §2, §3
# [1] = summary of Example 1, SW1353 cells, IL-1β
smiles,measurement,setting,value
"C=C1CC[C@@H]2[C@](C)(CO)[C@H](O)CC[C@@]2(C)[C@@H]1C/C=C1/C(=O)OC[C@H]1O [Andrographolide, andrographolide]",MMP-13 Percent Change over Control,MMP-13; Dose 2.78,93.0%
same,MMP-13 Percent Change over Control,MMP-13; Dose 8.33,87.2%
same,MMP-13 Percent Change over Control,MMP-13; Dose 25,108.2%
same,"MMP-13, result in words",MMP-13; [1],significant reduction
same,COX-2 Percent Change over Control,COX-2; Dose 2.78,27.1%
same,COX-2 Percent Change over Control,COX-2; Dose 8.33,−22.8%
same,COX-2 Percent Change over Control,COX-2; Dose 25,59.8%
same,IL-1A Percent Change over Control,IL-1A; Dose 2.78,28.3%
same,IL-1A Percent Change over Control,IL-1A; Dose 8.33,46.1%
same,IL-1A Percent Change over Control,IL-1A; Dose 25,73.1%
same,"IL-1, result in words",IL-1A; [1],significant reduction
same,IL-6 Percent Change over Control,IL-6; Dose 2.78,46.7%
same,IL-6 Percent Change over Control,IL-6; Dose 8.33,62.8%
same,IL-6 Percent Change over Control,IL-6; Dose 25,101.3%
same,"IL-6, result in words",IL-6; [1],significant reduction
same,SOX-9 Percent Change over Control,SOX-9; Dose 2.78,14.2%
same,SOX-9 Percent Change over Control,SOX-9; Dose 8.33,10.8%
same,SOX-9 Percent Change over Control,SOX-9; Dose 25,40.5%
